# Experimental data published in patent US6121512A, “Cytochrome P-450 constructs and method of producing herbicide-resistant transgenic plants” (North Carolina State University, priority 1997, dated 2000).
# T1: soybean CYP71A10 (Glycine max, UniProt O48918)
# T1 construct: microsomes of yeast W(R) overexpressing endogenous P450 reductase
# T1 sequence (O48918 1-513): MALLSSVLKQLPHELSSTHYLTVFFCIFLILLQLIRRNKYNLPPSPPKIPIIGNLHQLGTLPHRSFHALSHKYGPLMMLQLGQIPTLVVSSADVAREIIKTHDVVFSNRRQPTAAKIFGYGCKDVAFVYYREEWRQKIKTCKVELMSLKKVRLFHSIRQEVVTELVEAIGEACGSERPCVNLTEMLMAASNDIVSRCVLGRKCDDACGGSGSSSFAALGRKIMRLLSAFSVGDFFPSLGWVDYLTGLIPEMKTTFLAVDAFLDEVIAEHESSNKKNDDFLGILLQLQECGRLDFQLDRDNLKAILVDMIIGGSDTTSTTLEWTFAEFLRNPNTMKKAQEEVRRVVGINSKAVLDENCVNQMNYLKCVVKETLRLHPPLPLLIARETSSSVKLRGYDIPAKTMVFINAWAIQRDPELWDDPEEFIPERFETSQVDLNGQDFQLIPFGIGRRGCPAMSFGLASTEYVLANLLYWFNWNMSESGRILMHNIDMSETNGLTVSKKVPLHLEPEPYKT
# T1 sequence (P16603 1-691 partner): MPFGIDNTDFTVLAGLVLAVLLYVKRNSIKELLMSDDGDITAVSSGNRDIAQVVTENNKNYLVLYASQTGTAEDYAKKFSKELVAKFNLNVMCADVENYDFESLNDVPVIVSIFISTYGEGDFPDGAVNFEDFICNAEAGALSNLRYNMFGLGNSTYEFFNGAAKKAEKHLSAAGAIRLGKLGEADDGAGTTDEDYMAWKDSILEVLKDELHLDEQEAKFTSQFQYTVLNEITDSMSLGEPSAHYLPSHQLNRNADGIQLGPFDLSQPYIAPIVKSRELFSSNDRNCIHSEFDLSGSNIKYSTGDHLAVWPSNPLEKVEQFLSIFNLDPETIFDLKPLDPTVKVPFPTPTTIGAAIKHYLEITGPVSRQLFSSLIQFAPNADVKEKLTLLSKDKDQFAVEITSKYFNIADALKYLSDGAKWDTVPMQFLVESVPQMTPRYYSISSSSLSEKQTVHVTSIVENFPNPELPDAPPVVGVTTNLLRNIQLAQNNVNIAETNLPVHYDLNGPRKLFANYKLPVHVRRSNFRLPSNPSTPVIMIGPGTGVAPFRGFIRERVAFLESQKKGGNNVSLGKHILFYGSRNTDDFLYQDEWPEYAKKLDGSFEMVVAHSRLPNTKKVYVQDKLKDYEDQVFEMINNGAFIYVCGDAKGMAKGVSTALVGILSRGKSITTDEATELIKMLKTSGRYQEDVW
# Columns and labels:
# soybean CYP71A10 = biological target: T1, soybean CYP71A10; assay: In vitro herbicide metabolism assay and enzyme kinetics, microsomes of yeast expressing CYP71A10; type: biochemical; conditions: for metabolites formed from the radiolabeled herbicide (TLC): 45 minutes at 27° C., 0.75 mM NADPH, 2.5 mg/ml microsomal protein
# Procedure: Yeast transformation was performed as described by Geitz et al., Nucleic Acids Research 20:1425 (1992). Media composition, culturing conditions, galactose induction, and microsomal preparations were conducted according to Pompon et al., Methods Enzymol. 272:51-64 (1995), using a culture volume of 250 ml. Microsomal protein was quantified spectrophotometrically using the method of Waddell, J. Lab. Clin. Med. 48:311-314 (1956), using bovine albumin as a standard. Dithionite-reduced, carbon monoxide difference spectra was obtained as previously outlined (Estabrook and Werringloer, Methods Ennzmol. 52:212-220 (1978)) using a Shimadzu Recording Spectrophotometer UV-240 (Shimadzu, Kyoto, Japan). P-450 protein concentrations of yeast microsomes were calculated using a millimolar extinction coefficient of 91 (Omura and Sato, J. Biol. Chem., 239:2370-2378 (1964)).
# Yeast microsomes enriched for a discrete soybean P-450 isozyme were assayed for their capacity to metabolize the ten herbicides and one insecticide listed in Table 3. The reaction mixtures contained 10,000 DPM (100-200 ng) radiolabeled substrate, 0.75 mM NAPDH, 2.5 mg/ml microsomal protein. Total reaction volumes were adjusted to 150 μl with 50 mM phosphate buffer (pH 7.1). The mixtures were incubated under light for 45 minutes at 27° C., arrested with 50 μl acetone and centriftiged at 14 000×g for 2 minutes. […] Radiolabeled bentazon and imazaquin-containing samples were spotted onto 200 micron Whatman LKC18F silica gel reversed-phase plates. All plates were developed in a benzene/acetone 2:1 (v/v) solvent system with the exception of prosulfaron, developed in toluene/acetone/acetic acid, 75:20:5 (v/v/v), and bentazon and imazaquin, developed in methanol/75 mM sodium acetate 40:60 (v/v). The developed plates were scanned with a Bioscan System 400 imaging scanner (Bioscan, Washington, D.C.), and the production of metabolites was determined based on the chromatographic profiles. For microsomes containing the expressed CYP71A10 enzyme, control experiments were also conducted to measure the NADPH-dependency, and the inhibitory effects of CO. CO treatment of the sample was achieved by gentle bubbling of the gas through the reaction mixture for 2 minutes immediately before the assay was initiated by the addition of NADPH.
# Substrate conversion was quantified by a combination of TLC analysis and scintillation spectrometry. The location of the metabolic products on the TLC plates was identified using an imaging scanner, the bands were scraped and analyzed by scintillation spectrometry. The amount of metabolite produced was calculated based on specific activity and scintillation counts. Each assay was repeated at least twice. Km and Vmax values were estimated using nonlinear regression analysis.
# [1] = test system: excised leaves of transgenic tobacco plant 25/2 progeny (CYP71A10-transformed); assay: In vivo herbicide metabolism assay, excised leaves of CYP71A10-transformed tobacco; parameters: species or system Nicotiana tabacum cv SR1; conditions: for % of herbicide metabolized, CYP71A10-transformed: after 14 hours, 1.2 nmol herbicide, standard error in parentheses, four 25/2 plants; for share of the chlortoluron metabolites recovered from CYP71A10-transformed leaves: 14 hours, TLC
# Procedure: (§1) Seeds from primary transgenic tobacco plants transformed with CYP71A10 and control plants transformed with the pBI121 vector were grown in Petri dishes containing MS salts and 100 μg/ml kanamycin. At five weeks post-seeding, kanamycin-resistant plantlets were transplanted into pots containing soil and grown an additional two weeks. Single leaves of approximately 10 cm^2 in size were excised and their petioles inserted into 100 μl of H2 O containing radiolabeled herbicide. The leaves were placed in a growth chamber maintaining a temperature of 27° C. and incubated until the entire volume of the herbicide solution was drawn up by the transpirational stream of the leaves (about 3 hrs). The leaves were subsequently transferred into an Eppendorf tube containing distilled water and further incubated for a total of 14 hours.
# (§2) [^14 C]-labeled herbicide was extracted from the leaves by grinding for 5 minutes in 250 μl methanol with a plastic pellet pestle driven by an electric drill. After centrifugation for 3 minutes at 14,000 g, 75μl of the supernatant was spotted on a Whatman K6F silica plate and developed in a solvent system containing chloroforn/ethanol/acetic acid 135:10:15 (v/v/v). The separated herbicide derivatives were visualized using an imaging scanner. Substrate conversion was quantified based on the amount of herbicide absorbed, and the ratios of the parent compound and the produced metabolites determined from the TLC profiles.
# [2] = test system: excised leaves of control tobacco plants transformed with pBI121; assay: In vivo herbicide metabolism assay, excised leaves of control tobacco; parameters: species or system Nicotiana tabacum cv SR1; conditions: for % of herbicide metabolized, Control: after 14 hours, 1.2 nmol herbicide, standard error in parentheses, three pBI121 control plants; for share of the chlortoluron metabolites produced in control leaves: 14 hours, TLC
# Procedure: as §1, §2
# [3] = test system: CYP71A10-transformed tobacco; assay: Herbicide tolerance, seeds germinated on herbicide medium, CYP71A10-transformed tobacco; type: in vivo, Nicotiana tabacum cv SR1; conditions: for tolerance of line 25/2 to the herbicide: compared with control plants, data not shown
# Procedure: (§3) T1 generation seeds from CYP71A10-transformed tobacco and pBI121-transformed control plants were placed onto Petri dishes containing MS salts and linuron (using its commercial formulation LOROX 50 DF) at active ingredient concentrations ranging from 0.25 to 3.0 μM. Chlortoluron was added at 0, 1.0, 5.0 and 10.0 μM concentrations using a 99.5% pure analytical standard. The Petri dishes were incubated in a growth chamber maintaining a constant temperature of 27° C. and a 16/8 hour light/dark cycle. The phytotoxic effects of the treatments were determined visually by comparison to control plants and plants grown in the absence of the herbicide. All treatments were repeated at least twice.
# [4] = test system: wild-type SR1 plants and pBI121-transformed control tobacco plants; assay: Herbicide tolerance, seeds germinated on herbicide medium, control tobacco; type: in vivo, Nicotiana tabacum cv SR1; conditions: data not shown
# Procedure: as §3
# Hill-reaction = conditions: cited from earlier work
# [5] = substrate: CN(C)C(=O)Nc1ccc(Cl)c(Cl)c1; assay: cells, lysate or membranes named; conditions: other: yeast microsomes containing CYP71A10; standard error in parentheses; nonlinear regression; pH 7.1; 27.0 °C
# [6] = substrate: CN(C)C(=O)Nc1cccc(C(F)(F)F)c1; assay: In vitro herbicide metabolism assay and enzyme kinetics, microsomes of yeast expressing CYP71A10; type: biochemical, soybean (Glycine max); conditions: other: yeast microsomes containing CYP71A10; standard error in parentheses; nonlinear regression; pH 7.1; 27.0 °C
# [7] = substrate: CON(C)C(=O)Nc1ccc(Cl)c(Cl)c1; assay: as above; type: biochemical, soybean (Glycine max); conditions: other: yeast microsomes containing CYP71A10; standard error in parentheses; nonlinear regression; pH 7.1; 27.0 °C
# [8] = substrate: Cc1ccc(NC(=O)N(C)C)cc1Cl; assay: as above; type: biochemical, soybean (Glycine max); conditions: other: yeast microsomes containing CYP71A10; standard error in parentheses; nonlinear regression; pH 7.1; 27.0 °C
# [9] = yeast microsomes containing CYP71A10, standard error in parentheses
molecule,measurement,setting,value
"[C-]#[O+] [CO, carbon monoxide]",reduction of linuron metabolizing activity,"soybean CYP71A10; linuron as substrate (3.2 μM), CO bubbled through reaction mixture for 2 minutes",approximately 37%
"CN(C)C(=O)Nc1ccc(Cl)c(Cl)c1 [Diuron, diuron]",metabolites formed from the radiolabeled herbicide (TLC),soybean CYP71A10,a single metabolite
same,Turnover,soybean CYP71A10; [9],0.4 (0.04) min^-1
same,Vmax,soybean CYP71A10; [9],16.8 (1.6) pmol min^-1 mg^-1 protein
same,"% of herbicide metabolized, CYP71A10-transformed",[1],49 (7.0) %
same,"% of herbicide metabolized, Control",[2],20 (2.0) %
same,tolerance of line 25/2 to the herbicide,[3],little tolerance
"CN(C)C(=O)Nc1cccc(C(F)(F)F)c1 [Fluometuron, fluometuron]",metabolites formed from the radiolabeled herbicide (TLC),soybean CYP71A10,a single metabolite
same,Turnover,soybean CYP71A10; [9],6.8 (0.24) min^-1
same,"% of herbicide metabolized, CYP71A10-transformed",[1],91 (4.5) %
same,"% of herbicide metabolized, Control",[2],15 (0.6) %
same,tolerance of line 25/2 to the herbicide,[3],little tolerance
"CON(C)C(=O)Nc1ccc(Cl)c(Cl)c1 [Linuron, linuron]",metabolites formed from the radiolabeled herbicide (TLC),soybean CYP71A10,two (a major and a minor) metabolites
same,linuron metabolizing activity with microsomes of yeast expressing only the V60 control plasmid,"soybean CYP71A10; V-60 control microsomes, no CYP71A10",no activity is detected
same,linuron metabolites when NADPH is omitted from the reaction,soybean CYP71A10; no NADPH,no metabolites are observed
same,Turnover,soybean CYP71A10; [9],2.8 (0.27) min^-1
same,"% of herbicide metabolized, CYP71A10-transformed",[1],87 (2.0) %
same,"% of herbicide metabolized, Control",[2],12 (2.6) %
same,germinated seedlings of plant 25/2 inhibited by the herbicide,[3]; 0.5 μM linuron in medium,one of 23
same,number of 20 other independent CYP71A10-expressing lines giving linuron tolerant progeny,[3]; 0.5 μM linuron in medium,19 lines
same,linuron level to which tolerant 25/2 plants were observed,[3]; increasing percentage of plants inhibited with rising concentration,≤ 2.5 µM
same,growth of wild-type SR1 and pBI121 control plants,[4]; 0.25 μM linuron (LOROX 50 DF) in medium,severely inhibited
same,growth of wild-type SR1 and pBI121 control plants,[4]; linuron 0.5 μM and higher in medium,completely arrested
same,inhibition of the Hill-reaction relative to N-demethyl linuron,Hill-reaction,10 fold
CNC(=O)Nc1ccc(C)c(Cl)c1 [N-demethyl chlortoluron],share of the chlortoluron metabolites recovered from CYP71A10-transformed leaves,[1],8%
same,share of the chlortoluron metabolites produced in control leaves,[2],Sixty three
same,share of the chlortoluron metabolites produced in control leaves,[2]; listed as Ndemethyl chlortoluron,63%
CN(C)C(=O)Nc1ccc(CO)c(Cl)c1 [ring-methyl hydroxy chlortoluron],share of the chlortoluron metabolites recovered from CYP71A10-transformed leaves,[1],47%
Clc1ccc(N2N=NC3C4CC(C5N=NC45)C32)cc1 (centres unmarked) [tetcyclasis],effect on linuron metabolizing activity,soybean CYP71A10,completely abolished
"soybean CYP71A10 (Glycine max) (protein, microsomes of yeast W(R) overexpressing endogenous P450 reductase) MALLSSVLKQLPHELSSTHYLTVFFCIFLILLQLIRRNKYNLPPSPPKIPIIGNLHQLGTLPHRSFHALSHKYGPLMMLQLGQIPTLVVSSADVAREIIKTHDVVFSNRRQPTAAKIFGYGCKDVAFVYYREEWRQKIKTCKVELMSLKKVRLFHSIRQEVVTELVEAIGEACGSERPCVNLTEMLMAASNDIVSRCVLGRKCDDACGGSGSSSFAALGRKIMRLLSAFSVGDFFPSLGWVDYLTGLIPEMKTTFLAVDAFLDEVIAEHESSNKKNDDFLGILLQLQECGRLDFQLDRDNLKAILVDMIIGGSDTTSTTLEWTFAEFLRNPNTMKKAQEEVRRVVGINSKAVLDENCVNQMNYLKCVVKETLRLHPPLPLLIARETSSSVKLRGYDIPAKTMVFINAWAIQRDPELWDDPEEFIPERFETSQVDLNGQDFQLIPFGIGRRGCPAMSFGLASTEYVLANLLYWFNWNMSESGRILMHNIDMSETNGLTVSKKVPLHLEPEPYKT",Km,[5],1.5 µM
same,Km,[6],14.9 µM
same,Km,[7],9.8 µM
same,Vmax,[7],125.6 (12.0) pmol min^-1 mg^-1 protein
same,Km,[8],1 µM
same,Vmax,[8],29.4 (2.2) pmol min^-1 mg^-1 protein
